Measurements as given in PMC6354023, “A phase I study of the HDM2 antagonist SAR405838 combined with the MEK inhibitor pimasertib in patients with advanced solid tumours” (British Journal of Cancer, 2018).
Like-named read-outs stand apart in the source and are kept apart here.

Assays:
[1] = Pharmacokinetics of pimasertib (plasma concentrations) in combination; assay type: in vivo, human; settings: for AUC(0-t) / Cmax / half-life / Tmax: human, plasma, oral; for AUC(0-t): read-out: Pimasertib AUC0–12, mean ± SD; for Cmax: read-out: Pimasertib Cmax, mean ± SD; for half-life: read-out: Pimasertib t1/2 (converted); for Tmax: read-out: Pimasertib tmax, median (range)
Excerpt: (§1) Blood samples were collected on Days 1 (for pimasertib only), 2, 3, 8 and 15 of Cycle 1, on Days 1 and 2 of Cycle 2, and on Day 1 of Cycles 3 and 4, to determine the whole-blood and plasma concentrations of SAR405838 and pimasertib, respectively.

[2] = parameters: method as in doi:10.1016/S0959-8049(12)72401-2; settings: cited from earlier work
[3] = system: pERK; assay: pERK levels in PMA-stimulated PBMCs by flow cytometry; assay type: in vivo, human
Experimental: MIC-1 protein concentrations were measured in plasma samples using an analytically validated enzyme-linked immunosorbent assay (Quantikine® Human GDF-15 immunoassay). pERK levels were determined by evaluating median value changes in response to ex vivo stimulation with or without phorbol myristate acetate (PMA) over time in whole-blood samples (CD 45^+ and lymphocyte populations) by flow cytometry (BD FACSCanto™ II instrument). Stimulated pERK levels were calculated as percentage (PMA-dimethylsulphoxide [DMSO])/DMSO).

[4] = Pharmacokinetics of SAR405838 (whole-blood concentrations) in combination; assay type: in vivo, human; settings: SAR405838 and pimasertib administered in combination
Excerpt: as §1

[5] = Safety assessments: adverse events (NCI-CTCAE v4.03), laboratory abnormalities; assay type: in vivo, human; settings: of 26 treated patients, in combination
Experimental: Safety was assessed by the evaluation of AEs, DLTs, changes in vital signs, ECOG PS, physical examinations,12-lead electrocardiograms, determination of LVEF, ophthalmological examinations and clinical laboratory tests (including haematology, coagulation, blood chemistry and urinalysis).

[6] = DL1 SAR405838 200 mg QD + pimasertib 45 mg BID, C1D2
[7] = DL1 SAR405838 200 mg QD + pimasertib 45 mg BID, C2D1
[8] = DL2a SAR405838 200 mg QD + pimasertib 60 mg QD, C1D1
[9] = DL2a SAR405838 200 mg QD + pimasertib 60 mg QD, C1D2
[10] = DL2b SAR405838 300 mg QD + pimasertib 45 mg BID, C1D1
[11] = DL2b SAR405838 300 mg QD + pimasertib 45 mg BID, C1D2
[12] = DL2b SAR405838 300 mg QD + pimasertib 45 mg BID, C2D1
[13] = DL3a SAR405838 300 mg QD + pimasertib 60 mg QD, C1D1
[14] = DL3a SAR405838 300 mg QD + pimasertib 60 mg QD, C1D2
[15] = DL3a SAR405838 300 mg QD + pimasertib 60 mg QD, C2D1
[16] = DL1 SAR405838 200 mg QD + pimasertib 45 mg BID, C1D1
[17] = DL2a SAR405838 200 mg QD + pimasertib 60 mg QD, C2D1

## O=C(NC[C@H](O)CO)c1ccncc1Nc1ccc(I)cc1F [pimasertib]
[1]; [6]
  Pimasertib tmax, median (range): 1.5 [0.5–2] (7) h
  AUC(0-t): 689 ± 324 ng·h/mL
  Cmax: 200 ± 102 ng/mL
[1]; [7]
  Pimasertib tmax, median (range): 1.5 [0.5–1.5] (6) h
  AUC(0-t): 862 ± 350 ng·h/mL
  Cmax: 226 ± 70.6 ng/mL
[1]; [8]
  Pimasertib AUC0–12, mean ± SD: 1120 ± 410 (4; 37) ng.h/mL
  Pimasertib tmax, median (range): 1.5 [0.5–1.5] (4) h
  Cmax: 301 ± 69.9 ng/mL
  half-life: 5.38 ± 0.276 h
[1]; [9]
  Pimasertib AUC0–12, mean ± SD: 1130 ± 422 (4; 37) ng.h/mL
  Cmax: 303 ± 134 ng/mL
  Tmax: 1 h
[1]; [10]
  Pimasertib tmax, median (range): 1.5 [0.5–1.5] (7) h
  AUC(0-t): 779 ± 594 ng·h/mL
  Cmax: 184 ± 109 ng/mL
  half-life: 4.71 ± 1.39 h
[1]; [11]
  Pimasertib tmax, median (range): 1.5 [1.5–2] (7) h
  AUC(0-t): 684 ± 367 ng·h/mL
  Cmax: 182 ± 110 ng/mL
[1]; [12]
  Pimasertib tmax, median (range): 1.5 [0.5–2] (6) h
  AUC(0-t): 532 ± 166 ng·h/mL
  Cmax: 147 ± 93.8 ng/mL
[1]; [13]
  Pimasertib t1/2: 5.25 ± 1.83 (7; 35) h
  AUC(0-t): 935 ± 469 ng·h/mL
  Cmax: 221 ± 98.3 ng/mL
  Tmax: 1 h
[1]; [14]
  Pimasertib tmax, median (range): 1.5 [0.5-2] (7) h
  AUC(0-t): 917 ± 390 ng·h/mL
  Cmax: 200 ± 84.4 ng/mL
[1]; [15]
  Pimasertib tmax, median (range): 1.5 [0.5–1.5] (5) h
  AUC(0-t): 765 ± 314 ng·h/mL
  Cmax: 243 ± 65.4 ng/mL
[1]; between DL1/DL2b (pimasertib 45 mg BID) and DL2a/DL3a (pimasertib 60 mg BID)
  Exposure change with dose increase (33%): resulted in pimasertib exposure increase
[1]; [16]
  AUC(0-t): 755 ± 382 ng·h/mL
  Cmax: 218 ± 108 ng/mL
  half-life: 4.76 ± 1.17 h
  Tmax: 0.5 h
[1]; [17]
  AUC(0-t): 1040 ± 504 ng·h/mL
  Cmax: 269 ± 134 ng/mL
[2]; BID
  Recommended phase II dose, monotherapy: 60 mg
[2]; once daily
  MTD, monotherapy, QD regimen: 90 mg
[2]; phase I dose-escalation trial
  DLTs, monotherapy: skin rash, acneiform dermatitis, ocular events and stomatitis
[2]; twice daily
  MTD, monotherapy, BID regimen: 60 mg
[3]
  Time pERK inhibition was maintained: 4 h
[3]; C1D1, C1D2 and C2D1, at or around tmax of pimasertib, at most DLs
  pERK inhibition: ≥ 80%
[4]
  PK in combination compared with PK as monotherapy: similar
[5]
  Patients with dose modification, reduction or omission: 18 patients
